test: not given; settings: human, cytosol

| SMILES | t1/2 [min] (Left) |
| --- | --- |
| O=c1cc(N2CCOCC2)oc2c(-c3cccc(F)c3)nccc12 [O=c1cc(N2CCOCC2)oc2c(-c3cccc(F)c3)nccc12] | > 120 |
| O=C(c1ccc(-c2ncc3cnc(-c4cccc(F)c4)cn23)cc1)N1CCc2cccnc21 | 17.3 |

test: not given; set-up: method as in PMID 20421447; settings: development discontinued in 2008; cited from earlier work

| SMILES | toxicity reported in development |
| --- | --- |
| Cn1cc(-c2ccc3nnc(Sc4ccc5ncccc5c4)n3n2)cn1 [SGX523] | dose-limiting renal toxicity |

test: not given; set-up: method as in PMID 21385103; settings: clinical trials terminated; cited from earlier work

| SMILES | levels of parent compound in human plasma |
| --- | --- |
| CC(C)n1nc(-c2cnc(N)nc2-c2ccccc2)ccc1=O [FK3453] | abnormally low levels |

test: Metabolic stability assay (substrate depletion) in mouse liver cytosol fractions; settings: external validation, sheet Mouse, left compound
Protocol: (§1) Our assay (384-well format) consisted of two parts; a robotic system for incubation and sample clean up and an integrated LC/MS method to calculate the percent remaining of parent compound. Briefly, each reaction mixture (110 μL) consisted of a test compound (1 μM) and either human or mouse cytosol fractions (2 mg/mL) in phosphate buffer (100 mM) at pH 7.4. Samples were incubated in 384-well plates at 37 °C for 0, 5, 10, 15, 30 and 60 min. Sample analysis and t1/2 calculations were performed using a previously described method [15]. […] A set of control compounds for low and high cytosolic stability were routinely run in each plate.

| SMILES | t1/2 [min] (Left) |
| --- | --- |
| CN(Cc1cccnc1)c1nc2c(c(=O)[nH]1)CCN(Cc1ccc(Cl)cc1)CC2 | 74.11 |
| O=C(Nc1ccc(-c2nnc3n2CCCC3)cc1)c1ccc(Cl)cc1 | 117.12 |
| FC(F)(F)c1ccc2nc([C@H]3CCN(Cc4ccc(Cl)cc4)C3)[nH]c2c1 | 56.67 |
| O=C1[C@H]2CN(Cc3ccc(Cl)cc3)C[C@H]2C(=O)N1Cc1ccc2c(c1)OCO2 | 66.66 |
| CCN1c2cc(C(=O)Nc3ccc(Cl)cc3)ccc2C(=O)N2CCCCC21 (stereo not shown) | 25.75 |
| CCOc1cc(=O)n2c(c1C(=O)Nc1ccc(Cl)cc1)CCCC2 | 94.08 |
| CCN1c2cc(C(=O)Nc3ccc(Cl)cc3)ccc2C(=O)N2CCCCCC21 (stereo not shown) | 56.1 |
| O=C(Nc1cccc(-c2nnc3n2CCCC3)c1)c1ccc(Cl)cc1 | 56.47 |
| Cc1cccc(-c2noc([C@@H]3C[C@@H](O)CN3Cc3ccc(Cl)cc3)n2)c1 | 23.64 |
| CN1c2cc(C(=O)Nc3ccc(Cl)cc3)ccc2C(=O)N2CCCCCC21 (stereo not shown) | 63.37 |
| CN1c2cc(C(=O)Nc3ccc(Cl)cc3)ccc2C(=O)N2CCCCC21 (stereo not shown) | 83.39 |
| CN(C)c1nc2c(c(=O)[nH]1)CCN(Cc1ccc(Cl)cc1)CC2 | 114.48 |
| COc1ccc(CN2C[C@H]3CN(Cc4ccc(Cl)cc4)CCN3C2=O)cc1 | 82.24 |
| OCC1(CN2CCCC2)CCN(Cc2ccc(Cl)cc2)CC1 [OCC1(CN2CCCC2)CCN(Cc2ccc(Cl)cc2)CC1] | 54.48 |
| O=C1[C@H]2CN(Cc3ccc(Cl)cc3)C[C@H]2C(=O)N1CCc1ccccc1 | 47.51 |
| Cc1noc(-c2nc(-c3ccc(Cl)cc3)no2)n1 [Cc1noc(-c2nc(-c3ccc(Cl)cc3)no2)n1] | 15.6 |
| CN1C(=O)CO[C@H]2CN(Cc3ccc(Cl)cc3)C[C@H]21 | 116.11 |

same assay, conditions: male, CD-1, mouse, cytosol, pH 7.4, t1/2 (mean ± SD) (Mouse cytosol), control compounds, 17 plates, 1 μM, 2 mg/mL cytosol, pH 7.4, 37 °C

| SMILES | half-life at 1 μM [h] |
| --- | --- |
| Cc1cc(=O)n(-c2ccccc2)n1C [Antipyrine, reference compound] | > 2 |

same assay, conditions: male, CD-1, mouse, cytosol, pH 7.4, t1/2 category (Mouse cytosol), control compounds, 17 plates

| SMILES | half-life at 1 μM [h] |
| --- | --- |
| Cc1cc(=O)n(-c2ccccc2)n1C [Antipyrine, reference compound] | > 0.5 |

same assay, conditions: male, CD-1, mouse, liver cytosol fractions, pH 7.4, t1/2 [min] (Right), external validation, sheet Mouse, right compound

| SMILES | half-life at 1 μM [h] |
| --- | --- |
| OCC1(CN2CCCC2)CCN(Cc2ccc(Cl)c(F)c2)CC1 [OCC1(CN2CCCC2)CCN(Cc2ccc(Cl)c(F)c2)CC1] | 1.21 |
| O=C1[C@H]2CN(Cc3ccc(Cl)c(F)c3)C[C@H]2C(=O)N1Cc1ccc2c(c1)OCO2 | 0.921 |
| CN1CCN(c2nc3c(c(=O)[nH]2)CCN(Cc2ccc(Cl)c(F)c2)CC3)CC1 | > 2 |
| O=c1[nH]c(N2CCOCC2)nc2c1CCN(Cc1ccc(Cl)c(F)c1)CC2 | 1.54 |
| CN(C1CCOCC1)C1CCN(C(=O)c2cc[nH]n2)CC1 [CN(C1CCOCC1)C1CCN(C(=O)c2cc[nH]n2)CC1] | > 2 |
| CCN1c2cc(C(=O)Nc3ccc(Cl)c(F)c3)ccc2C(=O)N2CCCCCC21 (stereo not shown) | 0.904 |
| COc1cccc(C(=O)NCC2CCCN(Cc3cc[nH]n3)C2)c1OC (stereo not shown) | > 2 |
| CN(C)c1nc2c(c(=O)[nH]1)CCN(Cc1ccc(Cl)c(F)c1)CC2 | > 2 |
| CN1c2cc(C(=O)Nc3ccc(Cl)c(F)c3)ccc2C(=O)N2CCCCC21 (stereo not shown) | 0.524 |
| COCC1CN(C(C)=O)CC12CCN(Cc1ccc(Cl)c(F)c1)CC2 (stereo not shown) | 1.36 |
| CCOc1cc(=O)n2c(c1C(=O)Nc1ccc(Cl)c(F)c1)CCCC2 | 1.34 |
| COCC1CN(Cc2ccc(Cl)c(F)c2)CC12CCNCC2 (stereo not shown) [COCC1CN(Cc2ccc(Cl)c(F)c2)CC12CCNCC2] | > 2 |
| O=C1OCC2(CCN(Cc3cc[nH]n3)C2)N1CCN1CCOCC1 (stereo not shown) [O=C1OCC2(CCN(Cc3cc[nH]n3)C2)N1CCN1CCOCC1] | > 2 |
| O=C1NC2(CCN(C(=O)c3ccc(Cl)c(F)c3)CC2)CC1c1ccccc1 (stereo not shown) | 1.43 |
| COc1cc(=O)n2c(c1C(=O)Nc1ccc(Cl)c(F)c1)CCCC2 | 1.47 |
| O=C(Nc1ccc(-c2nnc3n2CCCC3)cc1)c1cc[nH]n1 [O=C(Nc1ccc(-c2nnc3n2CCCC3)cc1)c1cc[nH]n1] | > 2 |
| O=C1[C@H]2CN(Cc3ccc(Cl)c(F)c3)C[C@H]2C(=O)N1CCc1ccccc1 | 0.621 |
| CCN1c2cc(C(=O)Nc3ccc(Cl)c(F)c3)ccc2C(=O)N2CCCCC21 (stereo not shown) | 0.412 |
| O=C(Nc1cccc(-c2nnc3n2CCCC3)c1)c1cc[nH]n1 [O=C(Nc1cccc(-c2nnc3n2CCCC3)c1)c1cc[nH]n1] | > 2 |
| CN1c2cc(C(=O)Nc3ccc(Cl)c(F)c3)ccc2C(=O)N2CCCCCC21 (stereo not shown) | 0.383 |

test: Metabolic stability assay (substrate depletion) in human liver cytosol fractions; settings: both, human, cytosol, pH 7.4, t1/2 (mean ± SD) (Human cytosol), control compounds, 17 plates, 1 μM, 2 mg/mL cytosol, pH 7.4, 37 °C
Protocol: as §1

| SMILES | half-life at 1 μM [h] |
| --- | --- |
| Cc1cc(=O)n(-c2ccccc2)n1C [Antipyrine, reference compound] | > 2 |

same assay, conditions: both, human, cytosol, pH 7.4, t1/2 category (Human cytosol), control compounds, 17 plates

| SMILES | half-life at 1 μM [h] |
| --- | --- |
| Cc1cc(=O)n(-c2ccccc2)n1C [Antipyrine, reference compound] | > 0.5 |

same assay, conditions: both, human, liver cytosol fractions, pH 7.4, t1/2 [min] (Left), external validation, sheet Human, left compound

| SMILES | half-life at 1 μM [h] |
| --- | --- |
| CC(=O)N1CCC(Cc2ccc(C(=O)NC3CC3)cc2)CC1 [CC(=O)N1CCC(Cc2ccc(C(=O)NC3CC3)cc2)CC1] | 1.33 |

same assay, conditions: both, human, liver cytosol fractions, pH 7.4, t1/2 [min] (Right), external validation, sheet Human, right compound

| SMILES | half-life at 1 μM [h] |
| --- | --- |
| CC(C)CN1C(=O)c2cccn2CC1C(=O)N1CCN(C)CC1 (stereo not shown) [CC(C)CN1C(=O)c2cccn2CC1C(=O)N1CCN(C)CC1] | 1.79 |
| COc1cccc(-c2c(C(=O)Nc3ccc(C)cc3)nc3sccn23)c1 | 1.55 |
| COc1ccc(CN2CCC3(CC2)CC(=O)c2ccccc2O3)cc1 [COc1ccc(CN2CCC3(CC2)CC(=O)c2ccccc2O3)cc1] | > 2 |
| COc1cccc(-c2cn3c(n2)N(C(=O)c2cccs2)CCC3)c1 | > 2 |
| CC1(c2ccccc2)N(Cc2ccccc2)C(=O)OC12CCN(Cc1ccc(C(=O)O)cc1)CC2 (stereo not shown) | > 2 |

same assay, conditions: both, human, liver cytosol fractions, pH 7.4, t1/2 [min] (left), in-house library pair, human transforms, left compound

| SMILES | half-life at 1 μM [h] |
| --- | --- |
| CC(=O)N1CCC(Cc2ccc(C(=O)NC3CC3)cc2)CC1 [CC(=O)N1CCC(Cc2ccc(C(=O)NC3CC3)cc2)CC1] | 1.33 |

same assay, conditions: external validation, sheet Human, left compound

| SMILES | t1/2 [min] (Left) |
| --- | --- |
| COc1ccc(-c2n[nH]c3ncc(-c4cccc(F)c4)nc23)c(C)c1 | 75.8 |
| O=C(c1ccoc1)N1CCC(Oc2cccc(F)c2)C1 (stereo not shown) [O=C(c1ccoc1)N1CCC(Oc2cccc(F)c2)C1] | 70.5 |
| CN(Cc1cccc(F)c1)C1CCOc2ccccc21 (stereo not shown) [CN(Cc1cccc(F)c1)C1CCOc2ccccc21] | 8.6 |
| Cc1cc2cc(-c3c(C)noc3C)nc(Nc3cccc(F)c3)c2o1 | 8.2 |
| N#Cc1ccc(CN2CCC3(COc4ccccc4C(=O)N3)C2)cc1 (stereo not shown) | 38.4 |
| N#Cc1cccc(-c2c(C(=O)NC3CC3)nc3sccn23)c1 [N#Cc1cccc(-c2c(C(=O)NC3CC3)nc3sccn23)c1] | 95.2 |
